Test results reported in BindingDB's records for doi:10.7270/Q2NV9GP9 (Burnham Center For Chemical Genomics, 2010).
Structures can show the parent of a compound that is named as a salt.

target: T1, Apelin receptor (Homo sapiens, UniProt P35414); assay: APJ agonists inducing beta-arrestin recruitment, dose response, cell-based, luminescence, uHTS hits (AID 488748); conditions: not given
T1 sequence (P35414 whole entry): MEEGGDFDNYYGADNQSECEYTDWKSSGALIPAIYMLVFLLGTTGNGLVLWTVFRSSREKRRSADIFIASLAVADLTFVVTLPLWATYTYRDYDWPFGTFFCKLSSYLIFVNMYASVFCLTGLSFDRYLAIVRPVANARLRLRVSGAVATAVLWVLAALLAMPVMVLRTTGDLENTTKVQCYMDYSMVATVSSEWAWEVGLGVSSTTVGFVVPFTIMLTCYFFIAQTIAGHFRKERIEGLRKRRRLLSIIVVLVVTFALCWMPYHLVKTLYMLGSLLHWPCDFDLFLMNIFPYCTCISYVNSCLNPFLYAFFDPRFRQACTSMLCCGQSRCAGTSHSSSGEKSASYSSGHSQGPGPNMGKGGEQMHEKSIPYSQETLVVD

First: CCN1C(c2ccccc2)=C(c2ccccc2)S/C1=C\C=C1/SC(=S)N(C)C1=O [MLS000526292]
Second: Cc1ccc(C=NNC(=O)CSc2nnc(-c3ccccc3)n2-c2ccc(Cl)cc2)o1 [SMR000217660]
The EC50 of the first is lower: 7.9 µM for the first, > 100 µM for the second.

`CCOc1ccc2nc(O)c(CN(CCO)C(c3nnnn3C3CCCCC3)C(C)C)cc2c1` (stereo unspecified) [SMR000004541] and `CCOc1ccc2nc(O)c(CN(Cc3ccco3)C(CC)c3nnnn3Cc3ccccc3)cc2c1` (stereo unspecified) [3-({[1-(1-Benzyl-1H-tetrazol-5-yl)-propyl]-furan-2-ylmethyl-amino}-methyl)-6-ethoxy-1H-quinolin-2-one] cannot be ordered by EC50: > 100 µM for the first, > 100 µM for the second.

`CC1CCCCN1S(=O)(=O)c1ccc(C(=O)N(CCCN(C)C)c2nc3ccc(Br)cc3s2)cc1` (stereo unspecified) and `Cc1ccc2nc(N(CCCN(C)C)C(=O)c3ccc(S(=O)(=O)N4CCc5ccccc5C4)cc3)sc2c1` [MLS001239478] cannot be ordered by EC50: > 100 µM for the first, > 100 µM for the second.

`COc1cc2c(cc1NC(=O)c1cc(-c3cccnc3)nc3ccc(C)cc13)oc1ccccc12` [N-(2-methoxydibenzofuran-3-yl)-6-methyl-2-pyridin-3-ylquinoline-4-carboxamide] and `COc1cc2c(cc1NC(=O)c1cccc([N+](=O)[O-])c1)oc1ccccc12` [SMR000187222] cannot be ordered by EC50: > 100 µM for the first, > 100 µM for the second.

`COC(=O)C1C(Cn2cnc3ccccc32)=NC(=O)NC1c1cc(C)ccc1C` (stereo unspecified) [methyl 6-(benzimidazol-1-ylmethyl)-4-(2,5-dimethylphenyl)-2-oxo-3,4-dihydro-1H-pyrimidine-5-carboxylate] and `CCC(c1nnnn1Cc1ccccc1)N(Cc1cc2cc(OC)ccc2[nH]c1=O)CC1CCCO1` (stereo unspecified) [3-[[1-(1-benzyltetrazol-5-yl)propyl-(oxolan-2-ylmethyl)amino]methyl]-6-methoxy-1H-quinolin-2-one] cannot be ordered by EC50: > 100 µM for the first, > 100 µM for the second.

`COC/C=C/C1=CC2=CC(=O)C(C)(OC(=O)c3cnc4ccccc4n3)C(=O)C2=CN1c1ccccc1` (stereo unspecified) and `CCCCC1=CC2=CC(=O)C(C)(OC(=O)CC)C(=O)C2=CN1c1ccccc1` (stereo unspecified) [CMLD003542] cannot be ordered by EC50: > 100 µM for the first, > 100 µM for the second.

`Cc1cccc2sc(N(CCCN(C)C)C(=O)c3ccc(S(=O)(=O)N4CCc5ccccc5C4)cc3)nc12` [SMR000807812] and `COc1cccc2sc(N(CCCN(C)C)C(=O)c3ccc(S(=O)(=O)N4CCc5ccccc5C4)cc3)nc12` [MLS001239312] cannot be ordered by EC50: > 100 µM for the first, > 100 µM for the second.

`CCOc1cccc2sc(N(CCCN(C)C)C(=O)c3ccc(S(=O)(=O)N4CCc5ccccc5C4)cc3)nc12` [4-(3,4-dihydro-1H-isoquinolin-2-ylsulfonyl)-N-[3-(dimethylamino)propyl]-N-(4-ethoxy-1,3-benzothiazol-2-yl)benzamide;hydrochloride] and `CCOc1ccc2nc(N(CCCN(C)C)C(=O)c3ccc(S(=O)(=O)N4CCc5ccccc5C4)cc3)sc2c1` cannot be ordered by EC50: > 100 µM for the first, > 100 µM for the second.

`Clc1ccccc1CSc1nnc(-c2ccncc2)o1` [2-{[(2-chlorophenyl)methyl]sulfanyl}-5-(pyridin-4-yl)-1,3,4-oxadiazole] and `NC(=NOS(=O)(=O)c1ccc2ccccc2c1)c1ccncc1` [N'-[(2-naphthylsulfonyl)oxy]-4-pyridinecarboximidamide] cannot be ordered by EC50: > 100 µM for the first, > 100 µM for the second.

`Cn1ncc2c(ON=C(N)c3ccc(C(C)(C)C)cc3)ncnc21` [4-tert-butyl-N'-(1-methylpyrazolo[3,4-d]pyrimidin-4-yl)oxy-benzamidine] and `COc1ccc(CN=Nc2cc(C)nc3ccc(OC)cc23)c(OC)c1` cannot be ordered by EC50: > 100 µM for the first, > 100 µM for the second.

`CCCc1cc(C(=O)Nc2sc3c(c2C(=O)OCC)CCCC3)no1` [MLS000116384] and `CCOC(=O)N1CCN(S(=O)(=O)c2ccc(C(=O)N(CCCN(C)C)c3nc4ccc(Cl)cc4s3)cc2)CC1` [ethyl 4-[4-[(6-chloranyl-1,3-benzothiazol-2-yl)-[3-(dimethylamino)propyl]carbamoyl]phenyl]sulfonylpiperazine-1-carboxylate;hydrochloride] cannot be ordered by EC50: > 100 µM for the first, > 100 µM for the second.

`CCCCC1=CC2=CC(=O)C(C)(OC(=O)C3CCCC3)C(=O)C2=CO1` (stereo unspecified) [cyclopentanecarboxylic acid (3-butyl-7-methyl-6,8-dioxo-2-benzopyran-7-yl) ester] and `CC1(OC(=O)C2CCCC2)C(=O)C=C2C=C(c3ccsc3)N(C3CCCC3)C=C2C1=O` (stereo unspecified) [SMR000452667] cannot be ordered by EC50: > 100 µM for the first, > 100 µM for the second.

`CCN(CC)CCNC(=O)c1cc(-c2cccnc2)nc2ccc(S(=O)(=O)N3CCC(C)CC3)cc12` [N-[2-(diethylamino)ethyl]-6-[(4-methyl-1-piperidinyl)sulfonyl]-2-(3-pyridinyl)-4-quinolinecarboxamide] and `CC1CCN(S(=O)(=O)c2ccc3nc(-c4ccccn4)cc(C(=O)NCCN(C)Cc4ccccc4)c3c2)CC1` [MLS000682486] cannot be ordered by EC50: > 100 µM for the first, > 100 µM for the second.

`CCOc1cccc2sc(N(CCCN(C)C)C(=O)c3ccc(S(=O)(=O)N(C)Cc4ccccc4)cc3)nc12` [MLS001239362] and `CCc1ccc2nc(N(CCCN(C)C)C(=O)c3ccc(S(=O)(=O)N4CCc5ccccc5C4)cc3)sc2c1` [MLS001239341] cannot be ordered by EC50: > 100 µM for the first, > 100 µM for the second.

`CN(C)CCCN(C(=O)c1ccc(S(=O)(=O)N2CCc3ccccc3C2)cc1)c1nc2ccc(F)cc2s1` [SMR000807789] and `COc1ccc2sc(N(CCCN(C)C)C(=O)c3ccc(S(=O)(=O)N4CCc5ccccc5C4)cc3)nc2c1` [MLS001239377] cannot be ordered by EC50: > 100 µM for the first, > 100 µM for the second.

`Cc1ccc2nc(NNC(=O)c3ccc(S(=O)(=O)N4CCc5ccccc5C4)cc3)sc2c1` [SMR000235768] and `Cc1cc(C)c2nc(NNC(=O)c3ccc(S(=O)(=O)N4CCc5ccccc5C4)cc3)sc2c1` cannot be ordered by EC50: > 100 µM for the first, > 100 µM for the second.

`COc1ccc2nc(O)c(C(c3nnnn3CC3CCCO3)N3CCc4ccccc4C3)cc2c1` (stereo unspecified) [3-{(3,4-Dihydro-1H-isoquinolin-2-yl)-[1-(tetrahydro-furan-2-ylmethyl)-1H-tetrazol-5-yl]-methyl}-6-methoxy-1H-quinolin-2-one] and `Cc1cc(C)c2sc(NNC(=O)c3ccc(S(=O)(=O)N4CCc5ccccc5C4)cc3)nc2c1` cannot be ordered by EC50: > 100 µM for the first, > 100 µM for the second.

`Clc1cccc(CN2CCc3c([nH]c4ccccc34)C2)c1` and `O=C(Cn1ncc2c([nH]c3ccccc32)c1=O)Nc1ccc(CN2CCCCC2)cc1` [SMR000629297] cannot be ordered by EC50: > 100 µM for the first, > 100 µM for the second.

`Cc1ccc(C=NNC(=O)CSc2nnc(-c3ccc(Cl)cc3)n2-c2ccccc2)o1` [SMR000218122] and `Cc1ccc(S(=O)(=O)Nc2nc(-c3ccccc3)cs2)cc1` cannot be ordered by EC50: > 100 µM for the first, > 100 µM for the second.

`CCOc1cc2[nH]c(=S)n(CCN3CCCCC3CC)c(=O)c2cc1OCC` (stereo unspecified) [MLS000520831] and `CCOc1cc2[nH]c(=S)n(CCN3CCC(C)CC3)c(=O)c2cc1OCC` [6,7-diethoxy-3-[2-(4-methyl-1-piperidinyl)ethyl]-2-sulfanylidene-1H-quinazolin-4-one] cannot be ordered by EC50: > 100 µM for the first, > 100 µM for the second.

Going from `CCSc1nc(O)c(CC)c(=O)n1C(C)CC` (stereo unspecified) [SMR000103074] to `COc1ccccc1-n1c(SC)nc(O)cc1=O`, the EC50 falls from > 100 µM to 58.4 µM.

`CCC(c1nnnn1CCOC)N(Cc1ccc(C)cc1)Cc1cc2cc(OC)ccc2[nH]c1=O` (stereo unspecified) and `CCC(C)NC(=O)CSC1=Nc2ccccc2C2=NC(CC(=O)NCc3ccc(F)cc3)C(=O)N12` (stereo unspecified) cannot be ordered by EC50: > 100 µM for the first, > 100 µM for the second.

`COc1cc(NC(=S)NC(=O)CCc2ccccc2)cc(OC)c1` [SMR000668635] and `CCC(C)NC(=O)CSC1=Nc2ccccc2C2=NC(CC(=O)NCc3ccccc3)C(=O)N12` (stereo unspecified) [2-[5-[2-(butan-2-ylamino)-2-oxidanylidene-ethyl]sulfanyl-3-oxidanylidene-2H-imidazo[1,2-c]quinazolin-2-yl]-N-(phenylmethyl)ethanamide] cannot be ordered by EC50: > 100 µM for the first, > 100 µM for the second.

`CC(C)C(=O)N1CCN(c2ccc(NC(=O)COc3ccccc3[N+](=O)[O-])cc2)CC1` [N-[4-(4-isobutyryl-1-piperazinyl)phenyl]-2-(2-nitrophenoxy)acetamide] and `CC1CCN(S(=O)(=O)c2ccc3nc(N4CCN(c5ccccc5)CC4)ccc3c2)CC1` [SMR000630335] cannot be ordered by EC50: > 100 µM for the first, > 100 µM for the second.

`CC(C)(C)OC(=O)NCCCCCc1cn([C@@H](CO)C(=O)NCCCCCCCCCCC(=O)N2CCN(C(=O)OC(C)(C)C)CC2)nn1` [Boc-KS] and `CCOc1cc2[nH]c(=S)n(CCCC(=O)NCc3ccccn3)c(=O)c2cc1OCC` cannot be ordered by EC50: > 100 µM for the first, > 100 µM for the second.

`COc1ccc(OC)c2sc(N(CCCN(C)C)C(=O)c3ccc(S(=O)(=O)N4CCc5ccccc5C4)cc3)nc12` [MLS001239200] and `CN(C)CCCN(C(=O)c1cc2cc([N+](=O)[O-])ccc2s1)c1nc2cc3c(cc2s1)OCCO3` [SMR000807865] cannot be ordered by EC50: > 100 µM for the first, > 100 µM for the second.

`CCOc1cc2[nH]c(=S)n(CCC(=O)N3CCc4ccccc4C3)c(=O)c2cc1OCC` [3-[3-(3,4-dihydro-1H-isoquinolin-2-yl)-3-oxidanylidene-propyl]-6,7-diethoxy-2-sulfanylidene-1H-quinazolin-4-one] and `COc1cccc2sc3ccc(NCCC4CCCN4C)cc3c(=O)c12` (stereo unspecified) [MLS001249993] cannot be ordered by EC50: > 100 µM for the first, > 100 µM for the second.

`COC(=O)CCCC1=CC2=CC(=O)C(C)(OC(=O)c3cccs3)C(=O)C2=CN1C1CCCCC1` (stereo unspecified) [[2-cyclohexyl-3-(4-methoxy-4-oxobutyl)-7-methyl-6,8-dioxoisoquinolin-7-yl] thiophene-2-carboxylate] and `CCCCCCC1=Cc2c/c(=C3/NN=C(c4cc(OC)c(OC)c(OC)c4)O3)c(=O)oc2=CC1=O` cannot be ordered by EC50: > 100 µM for the first, > 100 µM for the second.

`CC1=NOC(=O)/C1=C\c1ccc(-c2cc(Cl)ccc2Cl)o1` [SMR000141784] and `Cc1ccc2nc(C(C#N)=Cc3ccc([N+](=O)[O-])o3)[nH]c2c1` cannot be ordered by EC50: > 100 µM for the first, > 100 µM for the second.

same assay, conditions: inactive by the depositor's call

In order of rising EC50:
1. CCc1nnc(NC(=O)CSc2nc3cccnc3n2C2CCCCC2)s1 [MLS000073979]  45.9 µM
2. CCCCC1=CC2=CC(=O)C(C)(OC(=O)CC)C(=O)C2=CN1C1CCCCC1 (stereo unspecified)  77.6 µM
3. Cc1cc(C)n2nc3nc(N4CCCCC4)nc(-c4ccco4)c3c2n1 [4-(2-furyl)-6,8-dimethyl-2-piperidin-1-ylpyrimido[4',5':3,4]pyrazolo[1,5-a]pyrimidine]  96.6 µM
